Values after ≈ are worked out from the molar mass of the structure shown. Like-named read-outs stand apart in the source and are kept apart here.
Experiments:
[1] = tested on: S. aureus strain ATCC29213; test: MIC, broth microdilution antimicrobial susceptibility test (CLSI); assay type: cell-based; conditions: for MIC^c/MIC^b: Selectivity index: E. coli ATCC 25922 MIC over S. aureus 29213 MIC; for antibacterial activity in words (SAR analysis): MIC screening, S. aureus; for MIC: Staphylococcus aureus
Description: (§1) This example illustrates the evaluation of 2,4,6-trisubstituted pyrimidines 14 for their antimicrobial activities against the Gram positive S. aureus strain ATCC29213 and the Gram negative E. coli strain ATCC25922 by measuring their MIC, which is the lowest concentration of an antimicrobial agent that prevents visible growth of a microorganism in a broth dilution susceptibility test according to the standard method approved by the Clinical and Laboratory Standards Institute (CLSI) guidelines.^21
(§2) Procedure of Antimicrobial susceptibility test: The MIC value of compounds was measured in the antimicrobial susceptibility test using the broth microdilution procedure in accordance with the CLSI guidelines.^21 Cation-adjusted Mueller Hinton broth (CA-MHB) was used for all the S. aureus strains in the assay. Cells in exponential phase of growth were diluted to approximately 5×10^5 cfu/mL. Stock solutions of each compound were freshly dissolved in dimethyl sulfoxide (DMSO). Then, serial dilutions of each compound in CA-MHB medium were added into 96-well microplate. The final percentage of DMSO in the assay was 1%. Control experiments were performed with 1% DMSO instead of the compound solution. After being incubated at 37° C. for 18 h, OD600 value of cells was measured on a microplate reader and the percentage of bacterial cell inhibition with respect to controls was calculated. The MIC value was defined as the lowest compound concentration at which the growth of bacteria was inhibited by ≥90%. Three independent assays were performed for each compound.

[2] = tested on: E. coli strain ATCC25922; test: as above; assay type: cell-based; conditions: E. coli ATCC 25922, growth inhibited by ≥90%, 18 h; for MIC: Escherichia coli, ATCC25922, read-out: MIC^c: Minimum inhibitory concentration against E. coli
Description: as §1, §2

[3] = tested on: S. aureus ATCC BAA-1720 (methicillin resistant); test: MIC against clinically isolated strain 3; assay type: cell-based; conditions: Staphylococcus aureus, ATCCBAA1720
Description: as §2
(§3) Results: Three compounds, namely 14av_amine16, 14dv_amine16 and 14dv_amine06, were selected to be tested against nine in-house clinically isolated bacterial strains including S. aureus ATCC29247, which is an ampicillin resistant strain, S. aureus ATCC BAA-41, ATCC BAA-1717, ATCC BAA-1720, ATCC 43300 which are methicillin resistant strains and four USA300 strains, (#417, #757, #1799 and #2690), which are the predominant strain type of community-associated MRSA strains in the United States.

[4] = tested on: USA300 #2690 (community-associated MRSA); test: MIC against clinically isolated strain 9; assay type: cell-based, S. aureus; conditions: Staphylococcus aureus
Description: as §2, §3

[5] = tested on: S. aureus ATCC BAA-41 (methicillin resistant); test: MIC against clinically isolated strain 4; assay type: cell-based; conditions: Staphylococcus aureus, ATCCBAA41
Description: as §2, §3

[6] = tested on: USA300 #1799 (community-associated MRSA); test: MIC against clinically isolated strain 8; assay type: cell-based, S. aureus; conditions: Staphylococcus aureus
Description: as §2, §3

[7] = tested on: USA300 #417 (community-associated MRSA); test: MIC against clinically isolated strain 6; assay type: cell-based, S. aureus; conditions: Staphylococcus aureus
Description: as §2, §3

[8] = tested on: USA300 #757 (community-associated MRSA); test: MIC against clinically isolated strain 7; assay type: cell-based, S. aureus; conditions: Staphylococcus aureus
Description: as §2, §3

[9] = tested on: S. aureus ATCC BAA-1717 (methicillin resistant); test: MIC against clinically isolated strain 2; assay type: cell-based; conditions: Staphylococcus aureus, ATCCBAA1717
Description: as §2, §3

[10] = tested on: S. aureus ATCC 29247 (ampicillin resistant strain); test: MIC against clinically isolated strain 1; assay type: cell-based; conditions: Staphylococcus aureus, ATCC29247
Description: as §2, §3

[11] = tested on: S. aureus ATCC 43300 (methicillin resistant); test: MIC against clinically isolated strain 5; assay type: cell-based; conditions: Staphylococcus aureus, ATCC43300
Description: as §2, §3

[12] = S. aureus 29213, growth inhibited by ≥90%, 18 h
[13] = ATCC29213, S. aureus 29213, growth inhibited by ≥90%, 18 h, read-out: MIC^b: Minimum inhibitory concentration against S. aureus
[14] = S. aureus ATCC29213, read-out: MIC against S. aureus

Row | SMILES | MIC^c/MIC^b: Selectivity index [1] | MIC^b: Minimum inhibitory concentration against S. aureus [1, 12] | MIC^c: Minimum inhibitory concentration against E. coli [2] | antibacterial activity in words (SAR analysis) [1] | further results
1 | CCC(CC)c1cc(CCN2CCCN(Cc3ccc(C(C)C)cc3)CC2)nc(-c2ccncc2)n1 [Compound 14av_amine06] | >7 | 16 µM (≈ 7.77 µg/mL) | >125 µM |  | 
2 | CCC(CC)c1cc(CCN2CCCN(Cc3ccc(C(C)(C)C)cc3)CC2)nc(-c2ccncc2)n1 [Compound 14av_amine07] | >7 | 16 µM (≈ 8 µg/mL) | >125 µM |  | 
3 | CCC(CC)c1cc(CCN2CCCN(Cc3ccc(Br)cc3)CC2)nc(-c2ccncc2)n1 [Compound 14av_amine08] | >7 | 16 µM (≈ 8.36 µg/mL) | >125 µM |  | 
4 | CCC(CC)c1cc(CCN2CCCN(Cc3ccc(Cl)cc3)CC2)nc(-c2ccncc2)n1 [Compound 14av_amine13] | >9 | 13 µM (≈ 6.22 µg/mL) | >125 µM |  | 
5 | CCC(CC)c1cc(CCN2CCCN(Cc3cccc(C(F)(F)F)c3)CC2)nc(-c2ccncc2)n1 [Compound 14av_amine17] | >7 | 16 µM (≈ 8.19 µg/mL) | >125 µM |  | 
6 | CCC(CC)c1cc(CCN2CCCN(Cc3ccccc3C(F)(F)F)CC2)nc(-c2ccncc2)n1 [Compound 14av_amine18] | >7 | 16 µM (≈ 8.19 µg/mL) | >125 µM |  | 
7 | CCC(CC)c1cc(CCN2CCCN(C(=O)c3ccc(C(F)(F)F)cc3)CC2)nc(-c2ccncc2)n1 [Compound 14av_amine19] |  |  |  | poor antibacterial activity | 
8 | CCC(CC)c1cc(CCN2CCCN(CCc3ccc(C(F)(F)F)cc3)CC2)nc(-c2ccncc2)n1 [Compound 14av_amine20, 1-(2-(6-(pentan-3-yl)-2-(pyridin-4-yl)pyrimidin-4-yl)ethyl)-4-(4-(trifluoromethyl)phenethyl)-1,4-diazepane] | >15 |  |  | low MIC value | MIC [1, 13]: 8 µM (≈ 4.21 µg/mL); MIC [1, 14]: 5 to 8 µM (≈ 2.63 to 4.21 µg/mL); MIC [2]: > 125 µM
9 | CCC(CC)c1cc(CCN2CCN(Cc3ccc(C(F)(F)F)cc3)CC2)nc(-c2ccncc2)n1 [Compound 14av_amine24] | >10 | 12 µM (≈ 5.97 µg/mL) | >125 µM | poor antibacterial activity | 
10 | CCC(CC)c1cc(CCN2CCN(Cc3cccc(C(F)(F)F)c3)CC2)nc(-c2ccncc2)n1 [Compound 14av_amine28] | >12 | 10 µM (≈ 4.98 µg/mL) | >125 µM |  | 
11 | CCC(CC)c1cc(CCN2CCCN(Cc3ccc(C(F)(F)F)cc3)CC2)nc(C)n1 [Compound 14aw_amine16] |  |  |  | weak antibacterial activity | 
12 | CCC(CC)c1cc(CCN2CCCN(Cc3ccc(C(F)(F)F)cc3)CC2)nc(-c2ccccc2)n1 [Compound 14ax_amine16] |  |  |  | weak antibacterial activity | 
13 | CCC(CC)c1cc(CCN2CCCN(Cc3ccc(C(F)(F)F)cc3)CC2)nc(-c2cccnc2)n1 [Compound 14ay_amine16] |  |  |  | weak antibacterial activity | 
14 | CCC(CC)c1cc(CCN2CCCN(Cc3ccc(C(F)(F)F)cc3)CC2)nc(-c2ccccn2)n1 [Compound 14az_amine16] |  |  |  | weak antibacterial activity | 
15 | CC(C)c1cc(CCN2CCCN(Cc3ccc(C(F)(F)F)cc3)CC2)nc(-c2ccncc2)n1 [Compound 14bv_amine16] |  |  |  | poor antibacterial activity | 
16 | CCCCCc1cc(CCN2CCCN(Cc3ccc(C(C)C)cc3)CC2)nc(-c2ccncc2)n1 [Compound 14cv_amine06] | >12 | 10 µM (≈ 4.86 µg/mL) | >125 µM |  | 
17 | CCCCCc1cc(CCN2CCCN(Cc3ccc(C(F)(F)F)cc3)CC2)nc(-c2ccncc2)n1 [Compound 14cv_amine16] | >12 | 10 µM (≈ 5.12 µg/mL) | >125 µM | poor antibacterial activity | 
18 | CC(C)c1ccc(CN2CCCN(CCc3cc(-c4ccccc4)nc(-c4ccncc4)n3)CC2)cc1 [Compound 14dv_amine06, 1-(4-isopropylbenzyl)-4-(2-(6-phenyl-2-(pyridin-4-yl)pyrimidin-4-yl)ethyl)-1,4-diazepane] | >25 |  |  |  | MIC [3]: 10 µM (≈ 4.92 µg/mL); MIC [4]: 10 µM (≈ 4.92 µg/mL); MIC [5]: 10 µM (≈ 4.92 µg/mL); MIC [6]: 10 µM (≈ 4.92 µg/mL); MIC [7]: 10 µM (≈ 4.92 µg/mL); MIC [1, 13]: 5 µM (≈ 2.46 µg/mL); MIC [1, 14]: 5 to 8 µM (≈ 2.46 to 3.93 µg/mL); MIC [2]: > 125 µM; MIC [8]: 10 µM (≈ 4.92 µg/mL); MIC [9]: 5 µM (≈ 2.46 µg/mL); MIC [10]: 5 µM (≈ 2.46 µg/mL); MIC [11]: 10 µM (≈ 4.92 µg/mL)
19 | CC(C)(C)c1ccc(CN2CCCN(CCc3cc(-c4ccccc4)nc(-c4ccncc4)n3)CC2)cc1 [Compound 14dv_amine07, 1-(4-(tert-butyl)benzyl)-4-(2-(6-phenyl-2-(pyridin-4-yl)pyrimidin-4-yl)ethyl)-1,4-diazepane] | >25 |  |  |  | MIC [1, 13]: 5 µM (≈ 2.53 µg/mL); MIC [1, 14]: 5 to 8 µM (≈ 2.53 to 4.05 µg/mL); MIC [2]: > 125 µM
20 | Brc1ccc(CN2CCCN(CCc3cc(-c4ccccc4)nc(-c4ccncc4)n3)CC2)cc1 [Compound 14dv_amine08, 1-(4-bromobenzyl)-4-(2-(6-phenyl-2-(pyridin-4-yl)pyrimidin-4-yl)ethyl)-1,4-diazepane] | >25 |  |  |  | MIC [1, 13]: 5 µM (≈ 2.64 µg/mL); MIC [1, 14]: 5 to 8 µM (≈ 2.64 to 4.23 µg/mL); MIC [2]: > 125 µM
21 | Fc1cccc(CN2CCCN(CCc3cc(-c4ccccc4)nc(-c4ccncc4)n3)CC2)c1 [Compound 14dv_amine10] | >12 | 10 µM (≈ 4.68 µg/mL) | >125 µM |  | 
22 | Fc1ccc(CN2CCCN(CCc3cc(-c4ccccc4)nc(-c4ccncc4)n3)CC2)cc1F [Compound 14dv_amine12] | >12 | 10 µM (≈ 4.86 µg/mL) | >125 µM |  | 
23 | FC(F)(F)c1ccc(CCN2CCCN(CCc3cc(-c4ccccc4)nc(-c4ccncc4)n3)CC2)cc1 [Compound 14dv_amine20, 1-(2-(6-phenyl-2-(pyridin-4-yl)pyrimidin-4-yl)ethyl)-4-(4-(trifluoromethyl)phenethyl)-1,4-diazepane] | >25 |  |  |  | MIC [1, 13]: 5 µM (≈ 2.66 µg/mL); MIC [1, 14]: 5 to 8 µM (≈ 2.66 to 4.25 µg/mL); MIC [2]: > 125 µM
